# From PMC8667935, “Synthesis and biological evaluation of celastrol derivatives as potent antitumor agents with STAT3 inhibition” (Journal of Enzyme Inhibition and Medicinal Chemistry, 2021)
# pKd: −log10 of the molar value.
# Legend:
# STAT3 [1] = target: T1, STAT3 (Homo sapiens, UniProt P40763); test: SPR (Biacore T200, STAT3 amine-coupled to CM5 chip); format: binding
# T1 construct: recombinant human STAT3 protein (rhSTAT3)
# STAT3 [2] = target: T1, STAT3; test: SPR (Biacore T200, STAT3 amine-coupled to CM5 chip); positive control measured by the authors; format: binding
# T1 sequence (P40763 2-770): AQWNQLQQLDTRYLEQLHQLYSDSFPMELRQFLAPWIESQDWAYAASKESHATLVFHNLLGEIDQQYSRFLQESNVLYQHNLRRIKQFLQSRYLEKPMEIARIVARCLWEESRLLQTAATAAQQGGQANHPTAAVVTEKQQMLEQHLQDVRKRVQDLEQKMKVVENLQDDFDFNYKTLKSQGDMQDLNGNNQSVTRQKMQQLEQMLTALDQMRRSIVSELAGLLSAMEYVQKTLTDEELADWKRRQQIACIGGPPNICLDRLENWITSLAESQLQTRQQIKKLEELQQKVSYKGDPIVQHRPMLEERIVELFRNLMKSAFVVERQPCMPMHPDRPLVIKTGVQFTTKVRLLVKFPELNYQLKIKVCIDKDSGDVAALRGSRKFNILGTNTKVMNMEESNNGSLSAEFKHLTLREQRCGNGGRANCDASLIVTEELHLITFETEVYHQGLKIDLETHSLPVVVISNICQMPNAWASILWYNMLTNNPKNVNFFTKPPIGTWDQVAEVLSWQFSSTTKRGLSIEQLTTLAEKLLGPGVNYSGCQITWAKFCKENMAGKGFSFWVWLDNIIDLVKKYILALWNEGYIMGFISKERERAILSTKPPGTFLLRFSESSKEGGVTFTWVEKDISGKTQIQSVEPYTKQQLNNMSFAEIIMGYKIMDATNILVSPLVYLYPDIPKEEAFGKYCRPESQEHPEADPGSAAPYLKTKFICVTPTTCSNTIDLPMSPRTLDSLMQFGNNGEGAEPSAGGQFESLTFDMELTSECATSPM
SMILES,pKd (STAT3 [1]),pKd (STAT3 [2])
"CC1=C(O)C(=O)C=C2C1=CC=C1[C@@]2(C)CC[C@@]2(C)[C@@H]3C[C@](C)(C(=O)NCCc4cccs4)CC[C@]3(C)CC[C@]12C [4m, 3-Hydroxy-9β,13α-dimethyl-2-oxo-24,25,26-trinoroleana-1(10),3,5,7-tetraen-29-oic acid 2–(2-thienyl) ethylamide]",4.34,
"CC1=C(O)C(=O)C=C2C1=CC=C1[C@@]2(C)CC[C@@]2(C)[C@@H]3C[C@](C)(C(=O)O)CC[C@]3(C)CC[C@]12C [CEL, Celastrol]",,4.22
